Reference: article PMC11785791, “Cryo-EM structure of the calcium-sensing receptor complexed with the kokumi substance γ-glutamyl-valyl-glycine” (Scientific Reports, 2025)

Format: physicochemical
Conditions: pH 7.4

N[C@@H](Cc1c[nH]c2ccccc12)C(=O)O [L-Trp, L-tryptophan]
Solubility in the assay buffer: low solubility
